Our source for the IC50 values is patent US20260022142A1, “MACROCYCLIC IMMUNOMODULATORS” (Bristol-Myers Squibb Company, priority 2022, published 2026).

Numbered stars: 1 amine (or outer) side, 2 acyl side, 3 side chain; on linkers, the order of the positions; unused ones are H or OH. Bridge positions count the residues as written; N and C are the ends. Square brackets hold non-standard residues; d marks the D form. Peptide text beside a SMILES is read from it. * marks the point of attachment. ξ: configuration not given here. Bip = N[C@@H](Cc1ccc(-c2ccccc2)cc1)C(=O)O; Phe(3-Me) = Cc1cccc(C[C@H](N)C(=O)O)c1; X5 = CC(C)(CCN)[C@H](N[*:1])C(=O)[*:2]; Val(3-OH) = CC(C)(O)[C@H](N)C(=O)O; Val(3-F) = CC(C)(F)[C@H](N)C(=O)O; 4Pal = N[C@@H](Cc1ccncc1)C(=O)O; Cha = N[C@@H](CC1CCCCC1)C(=O)O; CH2COCH2 = O=C(C[*:1])C[*:2]; Carboxymethyl = O=C(O)C*; Orn = NCCC[C@H](N)C(=O)O; Aun = NCCCCCCCCCCC(=O)O; Dab = NCC[C@H](N)C(=O)O; Piv = CC(C)(C)C(=O)*; ξV = CC(C)C(N)C(=O)O

In this assay the target is T1, PD-1/PD-L1 interaction (PE-labeled human PD-L1-Ig binding to Jurkat cell line over-expressing human PD-1) (Homo sapiens, UniProt Q15116).
T1 construct: expressed in transfected cells; host or cells: Jurkat
T1 sequence (Q15116 25-288): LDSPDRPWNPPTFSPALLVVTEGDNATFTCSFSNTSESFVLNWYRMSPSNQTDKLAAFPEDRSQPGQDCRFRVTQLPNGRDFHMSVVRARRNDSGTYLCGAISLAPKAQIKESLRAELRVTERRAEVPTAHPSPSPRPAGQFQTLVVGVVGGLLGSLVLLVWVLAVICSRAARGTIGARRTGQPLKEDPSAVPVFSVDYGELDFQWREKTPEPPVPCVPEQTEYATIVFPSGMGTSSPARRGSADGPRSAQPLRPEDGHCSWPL
In words: Jurkat-PD-1 Cell Binding High-Content Screening Assay (CBA). The format is cell-based. The note with it: Jurkat cell line over-expressing human PD-1; PE-labeled PD-L1-Ig 20 nM final; read-out: Jurkat hPD1-PDL1 IC50. The essentials: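 First, compound is added to PD-1-expressing Jurkat cells in serum-containing DMEM and left 2 h at 37° C. Next, PE-conjugated PD-L1-Ig is introduced at 20 nM final concentration for 1 hour. Finally, cells are fixed in 4% paraformaldehyde with Hoechst 33342, washed and imaged.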
A word on the IC50: it is the point on the concentration scale where inhibition reaches its midpoint. Take `Cc1cccc(C[C@@H]2NC(=O)[C@H](CC(=O)O)NC(=O)[C@H](Cc3ccc(OCC(=O)O)cc3)NC(=O)[C@H](CCNC(=O)C(C)(C)C)NC(=O)CSC[C@@H](C(=O)N[C@@H](CCN)C(=O)NCCCCCCCCCCC(=O)O)NC(=O)[C@H](CCC(N)=O)NC(=O)[C@H](C(C)C)NC(=O)[C@H](CC3CCCCC3)NC(=O)[C@H](CCN)NC(=O)[C@@H](CC(C)C)NC(=O)[C@H](CCCN)NC(=O)[C@H](Cc3ccc(OCC(=O)O)cc3)NC(=O)[C@H](Cc3ccc(-c4ccccc4)cc3)NC(=O)[C@H](Cc3ccc(O)cc3)NC2=O)c1` [Compound 2112] ({CH2CO}-[Dab](Piv)Y(Carboxymethyl)D[Phe(3-Me)]Y[Bip]Y(Carboxymethyl)[Orn][dL][Dab][Cha]VQC[Dab][Aun]-OH; thioether N-14): the IC50 stood at 5.5 nM.

As to `Cc1cccc(C[C@@H]2NC(=O)[C@H](CC(=O)O)NC(=O)[C@H](Cc3ccc(OCC(=O)O)cc3)NC(=O)[C@H](CCCNC(=N)N)NC(=O)CSC[C@@H](C(=O)N[C@@H](CCN)C(=O)NCCCCCCCCCCC(=O)O)NC(=O)[C@H](CCC(N)=O)NC(=O)[C@H](C(C)C)NC(=O)[C@H](CC3CCCCC3)NC(=O)[C@H](CCN)NC(=O)[C@@H](CC(C)C)NC(=O)[C@H](CCCN)NC(=O)[C@H](Cc3ccc(OCC(=O)O)cc3)NC(=O)[C@H](Cc3ccc(-c4ccccc4)cc3)NC(=O)[C@H](C(C)(C)O)NC2=O)c1` [Compound 2113] ({CH2CO}-RY(Carboxymethyl)D[Phe(3-Me)][Val(3-OH)][Bip]Y(Carboxymethyl)[Orn][dL][Dab][Cha]VQC[Dab][Aun]-OH; thioether N-14), the IC50 was determined as 8.7 nM.

Take `CC(=O)COc1ccc(C[C@@H]2NC(=O)[C@H](Cc3cccc(C)c3)NC(=O)[C@H](CC(=O)O)NC(=O)[C@H](Cc3ccc(OCC(=O)O)cc3)NC(=O)[C@H](CCCNC(=N)N)NC(=O)CSC[C@@H](C(=O)N[C@@H](CCN)C(=O)NCCCCCCCCCCC(=O)O)NC(=O)[C@H]([C@@H](C)O)NC(=O)[C@H](C(C)C)NC(=O)[C@H](CC3CCCCC3)NC(=O)[C@H](CCN)NC(=O)[C@@H](CC(C)C)NC(=O)[C@H](CCCN)NC(=O)[C@H](Cc3ccncc3)NC(=O)[C@H](Cc3ccc(-c4ccccc4)cc3)NC2=O)cc1` [Compound 2114] ({CH2CO}-RY(Carboxymethyl)D[Phe(3-Me)]Y(CH2COCH2)[Bip][4Pal][Orn][dL][Dab][Cha]VTC[Dab][Aun]-OH; thioether N-14): the IC50 turned out to be 10 nM. `Cc1cccc(C[C@@H]2NC(=O)[C@H](CC(=O)O)NC(=O)[C@H](Cc3ccc(OCC(=O)O)cc3)NC(=O)[C@H](CCCNC(=N)N)NC(=O)CSC[C@@H](C(=O)N[C@@H](CCN)C(=O)NCCCCCCCCCCC(=O)O)NC(=O)[C@H](CO)NC(=O)[C@H](C(C)C)NC(=O)[C@H](CC3CCCCC3)NC(=O)[C@H](CCN)NC(=O)[C@@H](CC(C)C)NC(=O)[C@H](CCCN)NC(=O)[C@H](Cc3ccncc3)NC(=O)[C@H](Cc3ccc(-c4ccccc4)cc3)NC(=O)[C@H](Cc3ccc(OCC(=O)O)cc3)NC2=O)c1` [Compound 2115] ({CH2CO}-RY(Carboxymethyl)D[Phe(3-Me)]Y(Carboxymethyl)[Bip][4Pal][Orn][dL][Dab][Cha]VSC[Dab][Aun]-OH; thioether N-14): the IC50 was determined as 29.3 nM. Take `Cc1cccc(C[C@@H]2NC(=O)[C@H](CC(=O)O)NC(=O)[C@H](Cc3ccc(OCC(=O)O)cc3)NC(=O)[C@H](CCCNC(=N)N)NC(=O)CSC[C@@H](C(=O)N[C@H](C(=O)NCCCCCCCCCCC(=O)O)C(C)(C)CCN)NC(=O)[C@H]([C@@H](C)O)NC(=O)[C@H](C(C)C)NC(=O)[C@H](CC3CCCCC3)NC(=O)[C@H](CCN)NC(=O)[C@@H](CC(C)C)NC(=O)[C@H](CCCN)NC(=O)[C@H](Cc3ccc(OCC(=O)O)cc3)NC(=O)[C@H](Cc3ccc(-c4ccccc4)cc3)NC(=O)[C@H](Cc3ccc(O)cc3)NC2=O)c1` [Compound 2116] ({CH2CO}-RY(Carboxymethyl)D[Phe(3-Me)]Y[Bip]Y(Carboxymethyl)[Orn][dL][Dab][Cha]VTC[X5][Aun]-OH; thioether N-14): the IC50 stood at 53.5 nM. `Cc1cccc(C[C@@H]2NC(=O)[C@H](CC(=O)O)NC(=O)[C@H](Cc3ccc(OCC(=O)O)cc3)NC(=O)[C@H](CCCNC(=N)N)NC(=O)CSC[C@@H](C(=O)N[C@@H](CCNC(=O)C(C)(C)C)C(=O)NCCCCCCCCCCC(=O)O)NC(=O)[C@H]([C@@H](C)O)NC(=O)[C@H](C(C)C)NC(=O)[C@H](CC3CCCCC3)NC(=O)[C@H](CCN)NC(=O)[C@@H](CC(C)C)NC(=O)[C@H](CCCN)NC(=O)[C@H](Cc3ccc(OCC(=O)O)cc3)NC(=O)[C@H](Cc3ccc(-c4ccccc4)cc3)NC(=O)[C@H](Cc3ccc(O)cc3)NC2=O)c1` [Compound 2117] ({CH2CO}-RY(Carboxymethyl)D[Phe(3-Me)]Y[Bip]Y(Carboxymethyl)[Orn][dL][Dab][Cha]VTC[Dab](Piv)[Aun]-OH; thioether N-14): the IC50 is 26.3 nM. Under `Cc1cccc(C[C@@H]2NC(=O)[C@H](CC(=O)O)NC(=O)[C@H](Cc3ccc(OCC(=O)O)cc3)NC(=O)[C@H](CCCNC(=N)N)NC(=O)CSC[C@@H](C(=O)N[C@@H](CCN)C(=O)NCCCCCCCCCCC(=O)O)NC(=O)[C@H](C(C)(C)CCN)NC(=O)C(C(C)C)NC(=O)[C@H](CC3CCCCC3)NC(=O)[C@H](CCN)NC(=O)[C@@H](CC(C)C)NC(=O)[C@H](CCCN)NC(=O)[C@H](Cc3ccc(OCC(=O)O)cc3)NC(=O)[C@H](Cc3ccc(-c4ccccc4)cc3)NC(=O)[C@H](Cc3ccc(O)cc3)NC2=O)c1` (stereo partly drawn) [Compound 2118] ({CH2CO}-RY(Carboxymethyl)D[Phe(3-Me)]Y[Bip]Y(Carboxymethyl)[Orn][dL][Dab][Cha][ξV][X5]C[Dab][Aun]-OH; thioether N-14) stands 126 nM; under `Cc1cccc(C[C@@H]2NC(=O)[C@H](CC(=O)O)NC(=O)[C@H](Cc3ccc(OCC(=O)O)cc3)NC(=O)[C@H](CCCNC(=N)N)NC(=O)CSC[C@@H](C(=O)N[C@@H](CCN)C(=O)NCCCCCCCCCCC(=O)O)NC(=O)[C@H](CCNC(=O)C(C)(C)C)NC(=O)[C@H](C(C)C)NC(=O)[C@H](CC3CCCCC3)NC(=O)[C@H](CCN)NC(=O)[C@@H](CC(C)C)NC(=O)[C@H](CCCN)NC(=O)[C@H](Cc3ccc(OCC(=O)O)cc3)NC(=O)[C@H](Cc3ccc(-c4ccccc4)cc3)NC(=O)[C@H](Cc3ccc(O)cc3)NC2=O)c1` [Compound 2119] ({CH2CO}-RY(Carboxymethyl)D[Phe(3-Me)]Y[Bip]Y(Carboxymethyl)[Orn][dL][Dab][Cha]V[Dab](Piv)C[Dab][Aun]-OH; thioether N-14), 10.3 nM. The same measure for `Cc1cccc(C[C@@H]2NC(=O)[C@H](CC(=O)O)NC(=O)[C@H](Cc3ccc(OCC(=O)O)cc3)NC(=O)[C@H](CCCNC(=N)N)NC(=O)CSC[C@@H](C(=O)N[C@@H](CCN)C(=O)NCCCCCCCCCCC(=O)O)NC(=O)[C@H](CO)NC(=O)[C@H](C(C)(C)F)NC(=O)[C@H](CC3CCCCC3)NC(=O)[C@H](CCN)NC(=O)[C@@H](CC(C)C)NC(=O)[C@H](CCCN)NC(=O)[C@H](Cc3ccc(OCC(=O)O)cc3)NC(=O)[C@H](Cc3ccc(-c4ccccc4)cc3)NC(=O)[C@H](Cc3ccc(O)cc3)NC2=O)c1` [Compound 2121] ({CH2CO}-RY(Carboxymethyl)D[Phe(3-Me)]Y[Bip]Y(Carboxymethyl)[Orn][dL][Dab][Cha][Val(3-F)]SC[Dab][Aun]-OH; thioether N-14): 8.3 nM.
